Laboratory results published in patent US20250382305A1 (PTC THERAPEUTICS, INC., priority 2022, published 2025).

How the values were obtained:
[1] = test system: Total ATXN3 (tATXN3) protein; test: Endogenous Total ATXN3 (tATXN3) Protein Assay (MSD immunoassay of cell lysates); assay type: cell-based; conditions: average IC50, total ATXN3 protein in cell lysate after 48 h with compound (Table 1)
Description: Endogenous Total ATXN3 (tATXN3) Protein Assay
Meso Scale Discovery (MSD) 96-well or 384-well plates were coated overnight at 4° C. with Ataxin 3 mouse monoclonal antibody (Invitrogen, MA3-082) at a concentration of 0.5 μg/mL in PBS (30 μL per well). Plates were then washed three times with 300 μL wash buffer (0.05% TWEEN®-20, polyethylene glycol sorbitan monolaurate, in PBS) and blocked (Meso Scale Diagnostics, R93BA-1; 5% BSA in PBS) for 2 h at RT with rotational shaking and then washed three times with wash buffer.
(§1) Test compounds were serially diluted 3.16-fold in 100% DMSO to generate a 7-point concentration curve. Aliquots of 0.5 μL of diluted compounds were transferred to a 96-well flat bottom plate by a liquid handler. An aliquot of 0.5 μL DMSO was also transferred to separate wells and used as controls. Duplicate samples were set up for each compound concentration and for the DMSO control.
Cells were thawed and incubated in cell culture media (DMEM, 10% FBS, and 1% antibiotic cocktail) for 72 h. Cells were trypsinized, counted, and re-suspended to a concentration of 100,000 cells/mL in cell culture media. A 100 μL aliquot of the cell suspensions were plated at 10,000 cells per well in the compound containing 96 well microtiter plate and incubated for in a cell culture incubator (37° C., 5% CO2, 100% relative humidity). After 48 h, the medium was removed and 50-100 μL of lysis buffer (Meso Scale Diagnostics, R60TX-2) containing 1× halt protease inhibitor cocktail of (Thermo Scientific, Halt™ Protease Inhibitor Cocktail, 78430) per well was added to cells to provide a “cell lysate”. The plate was placed on a shaker at 4° C. for 30 minutes, then stored at −80° C.
Cell lysate samples (25 μL) were transferred to the antibody-coated MSD plate and incubated overnight at 4° C. After removal of the lysates, the plate was washed three times with wash buffer, and 25 μL of Ataxin 3 recombinant rabbit monoclonal antibody (Invitrogen, #702788) secondary antibody (diluted to 0.25 μg/mL in 0.05% TWEEN®-20 in blocking buffer) was added to each well and incubated with shaking for 1-2 h at room temperature. Following incubation with the secondary antibody, the wells were rinsed with wash buffer and then 25 μL of Anti Rabbit Antibody Goat SULFO-TAG Labeled (Meso Scale Diagnostics, R32AB-1) detecting antibody (diluted to […] in 0.05% TWEEN®-20 in blocking buffer) was added to each well and incubated with shaking for 1 h at room temperature. After rinsing three times with wash buffer, 150 μL of Read Buffer T with surfactant (tris-based buffer containing tripropylamine, Meso Scale Diagnostics, R92TC-1) were added to each empty well, and the plate was imaged on a SI 6000 imager (MSD) according to manufacturers' instructions provided for 96- or 384-well plates.
(§2) An average IC50>1 μM is indicated by one star (*), between >0.3 μM and ≤1 μM is indicated by two stars (**), between >0.03 μM and ≤0.3 μM is indicated by three stars (***), and ≤0.03 μM is indicated by four stars (****).

ATXN3 pre-mRNA = test: RT-qPCR Assay to Quantify Exon 4 Skipping in ATXN3 pre-mRNA in Cells; assay type: cell-based; conditions: percent exon 4 skipping in ATXN3 pre-mRNA, RT-qPCR of cell lysates; average IC50
Description: RT-qPCR Assay to Quantify Exon 4 Skipping in ATXN3 pre-mRNA in Cells
as §1
Cells were thawed and incubated in cell culture media (DMEM, 10% FBS, and 1% antibiotic cocktail) for 72 h. Cells were trypsinized, counted, and re-suspended to a concentration of 100,000 cells/mL in cell culture media. A 100 μL aliquot of the cell suspensions were plated at 10,000 cells per well in the compound containing 96 well microtiter plate and incubated for in a cell culture incubator (37° C., 5% CO2, 100% relative humidity).
After 24 h, media was aspirated from the cells and 50 μL of the RCL2 lysis buffer (10 mM Tris-HCL pH 7.4, 150 mM NaCl, 0.33% IGEPAL® CA-630) was added to each well and incubated at RT for 1 min. Chilled nuclease free water (50 μL per well) was added and the plates were immediately transferred on ice. After 1 min on ice, plates were frozen at −80° C. overnight.
Preparation of RT-qPCR Reaction Mixture:
An aliquot of 2 μL/well of the cell lysates was transferred using the liquid handler to the Armadillo 384-Well PCR plate containing 8 μL/well of the RT-qPCR reaction mixture that was prepared as detailed above. The plates were then sealed with MicroAmp™ Optical Adhesive Film followed by spinning down for 1 min and placed in the CFX384 thermocycler (BioRad).
The RT-qPCR was carried out at the following temperatures for the indicated time: • Step 1: 48° C. (30 min) • Step 2: 95° C. (10 min) • Step 3: 95° C. (15 sec) • Step 4: 60° C. (1 min); then, repeated Steps 3 and 4 for a total of 40 cycles.
The percent exon 4 skipping was calculated for each dose of compound treatment using Equations 1 and 2.
Data were fit to a dose response curve and the IC50 was interpolated using XLfit® statistical and curve fitting package.
as §2

Row | Substance | IC50 [1] | IC50 (ATXN3 pre-mRNA)
1 | 2-(3-aminotetrahydro-2H-pyran-2-yl)-N-benzyl-3-bromo-5-chlorothieno[3,2-b]pyridin-7-amine [Compound 27] | 30 to 300 nM | ≤ 30 nM
2 | 2-((1R,2R)-2-amino-4,4-dimethylcyclohexyl)-3-bromo-5-chloro-N-(thiophen-2-ylmethyl)thieno[3,2-b]pyridin-7-amine and 2-((1S,2S)-2-amino-4,4-dimethylcyclohexyl)-3-bromo-5-chloro-N-(thiophen-2-ylmethyl)thieno[3,2-b]pyridin-7-amine [Compound 152] | 30 to 300 nM | 30 to 300 nM
3 | 2-((1R,2R)-2-amino-5,5-difluorocyclohexyl)-5-chloro-3-methyl-N-(thiophen-2-ylmethyl)thieno[3,2-b]pyridin-7-amine and 2-((1S,2S)-2-amino-5,5-difluorocyclohexyl)-5-chloro-3-methyl-N-(thiophen-2-ylmethyl)thieno[3,2-b]pyridin-7-amine [Compound 333] | 30 to 300 nM | 30 to 300 nM
4 | 2-((1R,2R)-2-amino-5,5-dimethylcyclohexyl)-3-bromo-5-chloro-N-(thiophen-2-ylmethyl)thieno[3,2-b]pyridin-7-amine and 2-((1S,2S)-2-amino-5,5-dimethylcyclohexyl)-3-bromo-5-chloro-N-(thiophen-2-ylmethyl)thieno[3,2-b]pyridin-7-amine [Compound 149] | 30 to 300 nM | 30 to 300 nM
5 | 2-((1R,2R)-2-aminocyclohexyl)-3,5-dichloro-1-(difluoromethyl)-N-(thiophen-2-ylmethyl)-1H-pyrrolo[3,2-b]pyridin-7-amine and 2-((1S,2S)-2-aminocyclohexyl)-3,5-dichloro-1-(difluoromethyl)-N-(thiophen-2-ylmethyl)-1H-pyrrolo[3,2-b]pyridin-7-amine [Compound 421] | ≤ 30 nM | ≤ 30 nM
6 | 2-((1R,2R)-2-aminocyclohexyl)-5-chloro-3-(prop-1-yn-1-yl)-N-(thiophen-2-ylmethyl)thieno[3,2-b]pyridin-7-amine and 2-((1S,2S)-2-aminocyclohexyl)-5-chloro-3-(prop-1-yn-1-yl)-N-(thiophen-2-ylmethyl)thieno[3,2-b]pyridin-7-amine [Compound 189] | ≤ 30 nM | ≤ 30 nM
7 | 2-((1R,2R)-2-aminocyclohexyl)-5-chloro-3-methyl-N-(thiophen-2-ylmethyl)thieno[3,2-b]pyridin-7-amine or 2-((1S,2S)-2-aminocyclohexyl)-5-chloro-3-methyl-N-(thiophen-2-ylmethyl)thieno[3,2-b]pyridine-7-amine [Compound 35] | 300 to 1000 nM | 300 to 1000 nM
8 | 2-((1R,2R)-2-aminocyclohexyl)-N-benzyl-5-chloro-3-(prop-1-yn-1-yl)thieno[3,2-b]pyridin-7-amine and 2-((1S,2S)-2-aminocyclohexyl)-N-benzyl-5-chloro-3-(prop-1-yn-1-yl)thieno[3,2-b]pyridin-7-amine [Compound 226] | ≤ 30 nM | ≤ 30 nM
9 | 2-((1R,2R)-2-aminocyclohexyl)-N-benzyl-5-chloro-3-iodothieno[3,2-b]pyridin-7-amine and 2-((1S,2S)-2-aminocyclohexyl)-N-benzyl-5-chloro-3-iodothieno[3,2-b]pyridin-7-amine [Compound 295] | 30 to 300 nM | 30 to 300 nM
10 | 2-((1R,2R,6S)-2-amino-6-fluorocyclohexyl)-3-bromo-5-chloro-N-(thiophen-2-ylmethyl)thieno[3,2-b]pyridin-7-amine and 2-((1S,2S,6R)-2-amino-6-fluorocyclohexyl)-3-bromo-5-chloro-N-(thiophen-2-ylmethyl)thieno[3,2-b]pyridin-7-amine [Compound 335] | 30 to 300 nM | 30 to 300 nM
11 | 2-((1R,2S,6R)-2-amino-6-fluorocyclohexyl)-3-bromo-5-chloro-N-(thiophen-2-ylmethyl)thieno[3,2-b]pyridin-7-amine and 2-((1S,2R,6S)-2-amino-6-fluorocyclohexyl)-3-bromo-5-chloro-N-(thiophen-2-ylmethyl)thieno[3,2-b]pyridin-7-amine [Compound 181] | ≤ 30 nM | ≤ 30 nM
12 | 2-((1R,2S,6R)-6-amino-2-methylcyclohex-3-en-1-yl)-3-bromo-5-chloro-N-(thiophen-2-ylmethyl)thieno[3,2-b]pyridin-7-amine and 2-((1S,2R,6S)-6-amino-2-methylcyclohex-3-en-1-yl)-3-bromo-5-chloro-N-(thiophen-2-ylmethyl)thieno[3,2-b]pyridin-7-amine [Compound 402] | ≤ 30 nM | ≤ 30 nM
13 | 2-((1R,5S,6S)-6-amino-5-methoxycyclohex-3-en-1-yl)-3-bromo-5-chloro-N-(thiophen-2-ylmethyl)thieno[3,2-b]pyridin-7-amine and 2-((1S,5R,6R)-6-amino-5-methoxycyclohex-3-en-1-yl)-3-bromo-5-chloro-N-(thiophen-2-ylmethyl)thieno[3,2-b]pyridin-7-amine [Compound 371] | 30 to 300 nM | 30 to 300 nM
14 | 2-((1R,6R)-6-aminocyclohex-3-en-1-yl)-3-bromo-5-chloro-N-((E)-pent-2-en-1-yl)thieno[3,2-b]pyridin-7-amine and 2-((1S,6S)-6-aminocyclohex-3-en-1-yl)-3-bromo-5-chloro-N-((E)-pent-2-en-1-yl)thieno[3,2-b]pyridin-7-amine [Compound 455] | 300 to 1000 nM | 300 to 1000 nM
15 | 2-((1R,6R)-6-aminocyclohex-3-en-1-yl)-3-bromo-5-chloro-N-(cyclopent-1-en-1-ylmethyl)thieno[3,2-b]pyridin-7-amine and 2-((1S,6S)-6-aminocyclohex-3-en-1-yl)-3-bromo-5-chloro-N-(cyclopent-1-en-1-ylmethyl)thieno[3,2-b]pyridin-7-amine [Compound 332] | 30 to 300 nM | 30 to 300 nM
16 | 2-((1R,6R)-6-aminocyclohex-3-en-1-yl)-5-chloro-3-(propa-1,2-dien-1-yl)-N-(thiophen-2-ylmethyl)thieno[3,2-b]pyridin-7-amine and 2-((1S,6S)-6-aminocyclohex-3-en-1-yl)-5-chloro-3-(propa-1,2-dien-1-yl)-N-(thiophen-2-ylmethyl)thieno[3,2-b]pyridin-7-amine [Compound 324] | 30 to 300 nM | 30 to 300 nM
17 | 2-((1R,6R)-6-aminocyclohex-3-en-1-yl)-5-chloro-3-methyl-N-(thiophen-2-ylmethyl)thieno[3,2-b]pyridin-7-amine and 2-((1S,6S)-6-aminocyclohex-3-en-1-yl)-5-chloro-3-methyl-N-(thiophen-2-ylmethyl)thieno[3,2-b]pyridin-7-amine [Compound 367] | 30 to 300 nM | 30 to 300 nM
